Experiments:
Retinoblastoma = assay: Imaging and tissue distribution, tumor model; format: in vivo, Spontaneous Mouse; details: Blastoma
TRAMP prostate = assay: Imaging and tissue distribution, tumor model; format: in vivo, Spontaneous mouse; details: Adenocarcinoma
albumin fraction = molecular target: T1, albumin fraction (Rattus norvegicus, UniProt P02770); assay: PAGE analysis of plasma radioactivity distribution after iodine-125 labeled 1; format: in vivo, Walker-256 tumor-bearing rats; details: plasma 7 days after administration
T1 construct: plasma was isolated from Walker-256 tumor-bearing rats; from tissue; host or cells: plasma of Walker-256 tumor-bearing rats
Excerpt: In order to examine the transport properties of PLE analogs, plasma was isolated from Walker-256 tumor-bearing rats 7 days after administration of iodine-125 labeled 1. The distribution of radioactivity in the plasma compartment of a rat receiving 1 (NM404) was studied.

Mammary SCC and ACC = assay: Imaging and tissue distribution, tumor model; therapeutic responses at imaging doses; format: in vivo, Apc^Min/+mouse; details: Squamous cell carcinoma and Adenocarcinoma
Excerpt: During the course of mouse tumor uptake and retention studies with “imaging” doses (15-20 μCi/20 g mouse) of ^125I-labeled NM404, several apparent therapeutic responses have been observed (unpublished results). […] Some of these animals also lost all hair above larger mammary tumors at around 8 days after injection. Moreover, these mice also get intestinal tumors and usually suffer from intestinal bleeding resulting in severe anemia, which renders their feet white. […] Another compelling example of tumor regression is illustrated in FIG. 13. Two litter mates each received SCC1 and SCC6 xenografts in their left and right flanks, respectively. One mouse received a single injection of ^125I-NM404 (20 μCi). […] These coincidental findings were reconfirmed in two separate age-matched groups each involving more than 6 mice.

[1] = Toxicology studies of unlabeled NM404 in rabbits; format: in vivo; details: for toxic effects: 14 days observation
Excerpt: (§1) In preparation for human clinical trials, unlabeled NM404 was subjected to independent (University of Buffalo Toxicology Research Center) acute toxicity evaluation at 1200 times the anticipated imaging mass dose in rats and rabbits. […] Due to its selective tumor uptake and retention properties in a variety of rodent tumor models and subsequent excellent safety profile in rats and rabbits, NM404 was selected to undergo initial human pharmacokinetic evaluation in non-small cell lung cancer (NSCLC) patients. Patients underwent planar gamma-camera scintigraphy after receiving an injection of ^131I-NM404 (<1 mCi).
(§2) Formal toxicology studies of NM404 in male rats and rabbits were performed at the Toxicology Research Center of the State University of New York at Buffalo under the direction of Dr. Paul Kostyniak. Drug vehicle and drug product were provided to Dr. Kostyniak by Dr. Raymond Counsell of the University of Michigan for testing as described in the appended synopses of Study 27 and Study 28. […] Human safety studies of unlabeled NM404 were initiated in normal male humans at a mass of 10 times the anticipated imaging dose and about 21 times the anticipated therapy dose. […] This toxicology study was performed under GLP conditions.
(§3) Subsequently, the inventors initiated a toxicology study of unlabeled NM404 in female rats and rabbits (Study 31 and Study 32) at the Toxicology Research Center at SUNY-Buffalo in order to expand the patient population to be studied in the NSCLC Phase 1 clinical trial. […] Human safety studies of unlabeled NM404 were initiated in normal female humans at a mass of 10 times the initially anticipated imaging dose and about 21 times the anticipated therapy dose. […] This toxicology study was performed under GLP conditions.

Adrenal RL-251 = assay: Imaging and tissue distribution, tumor model; format: in vivo, SCID Mouse
[2] = Toxicology studies of unlabeled NM404 in rats; format: in vivo; details: for toxic effects: 14 days observation
Excerpt: as §1, §2, §3

[3] = tested on: Pancreatic c-myc and kras; assay: Imaging and tissue distribution, tumor model; format: in vivo, Spontaneous mice; details: Adenocarcinoma
Excerpt: (§4) Imaging and tissue distribution studies performed in mouse models aimed at determining the uptake characteristics in a wide variety of tumor models are summarized in Table 1, below.

Cervical = assay: Imaging and tissue distribution, tumor model; format: in vivo, Spontaneous Mouse; details: Adenocarcinoma
Glioma L9 = assay: Imaging and tissue distribution, tumor model; format: in vivo, Rat
Excerpt: as §4

Liver CT-26 = assay: Imaging and tissue distribution, tumor model; format: in vivo, Mouse xenograft; details: Colorectal adenocarcinoma
Ovarian HTB-77 = assay: Imaging and tissue distribution, tumor model; format: in vivo, Nude Mouse; details: Adenocarcinoma
Prostate MatLyLu = assay: Gamma camera scintigraphy screen in Dunning R3327 (MAT LyLu) prostate cancer model; format: in vivo, Copenhagen rats
Experimental: The avidity of PLE and APC analogs to localize in tumors was evaluated in several animal models. The PC-3 model represents a human tumor cell line that was used to determine the target (tumor) to non-target ratio of NM404 and NM412 in head to head comparison in order to select a candidate for an initial human pharmacokinetic trial in prostate cancer patients. The MatLyLu (Dunning R3327 rat) model, a rat prostate tumor line, was used specifically to screen 9 specific analogs prior to entering them into control for dosimetry and tumor-bearing animals for determining tumor/background ratios. Finally, the Walker-256 carcinosarcoma model was used for quantitative tissue distribution purposes.
In order to expedite the screening process and minimize the number of tumor bearing animals utilized in multiple time point tissue distribution studies, new radioiodinated homologs were imaged by gamma camera scintigraphy in the rat Dunning […] (MAT LyLu strain) prostate cancer model. Thus, male Copenhagen rats received a subcutaneous injection of MAT LyLu cells (1×10^6 cells) in the thigh 10-14 days prior to injection of the radioiodinated PLE analogs (30-40 μCi) in 2% Tween-20 solution. Gamma camera images were obtained at multiple time points including 24 and 48 hours post injection. […] Tissue distribution of radioactivity in rats bearing Walker-256 carcinosarcoma was assessed at various time intervals following intravenous administration of the radioiodinated chain length homologs. The first group of compounds that was tested included three alkylphosphocholines: a shorter chain analog with seven carbons NM396 and two analogs with a longer chain length, 13 (NM397, C15 alkyl chain length) and 1 (NM404, C18 alkyl chain length).
In order to decrease liver uptake and prolong the plasma phase, the inventors examined 9 structural analogs of NM324 to identify agents that would display improved tumor-to-background tissue ratios with decreased liver uptake. The new PLE analogs were synthesized and radiolabeled with ^125I for initial image analysis in Copenhagen rats bearing Dunning R3327 prostate tumors. […] NM404 was therefore selected to undergo further imaging and biodistribution analysis in a variety of animal-tumor models.

[4] = tested on: non-small cell lung cancer (NSCLC); assay: Initial human pharmacokinetic evaluation, planar gamma-camera scintigraphy; format: in vivo; details: relative to NM324
Excerpt: FIG. 6A-C images of lung cancer patient, posterior whole body planar nuclear medicine image (A) 4 days after iv administration of ^131I-NM404 (0.8 mCi) to a patient with non small cell lung cancer (6 cm dia., arrow). Lung tumor is easily detected in corresponding axial (B) and coronal (C) computed tomography (CT) scans;
as §1

[5] = 1200 times the anticipated imaging mass dose

T1 sequence (P02770 25-608): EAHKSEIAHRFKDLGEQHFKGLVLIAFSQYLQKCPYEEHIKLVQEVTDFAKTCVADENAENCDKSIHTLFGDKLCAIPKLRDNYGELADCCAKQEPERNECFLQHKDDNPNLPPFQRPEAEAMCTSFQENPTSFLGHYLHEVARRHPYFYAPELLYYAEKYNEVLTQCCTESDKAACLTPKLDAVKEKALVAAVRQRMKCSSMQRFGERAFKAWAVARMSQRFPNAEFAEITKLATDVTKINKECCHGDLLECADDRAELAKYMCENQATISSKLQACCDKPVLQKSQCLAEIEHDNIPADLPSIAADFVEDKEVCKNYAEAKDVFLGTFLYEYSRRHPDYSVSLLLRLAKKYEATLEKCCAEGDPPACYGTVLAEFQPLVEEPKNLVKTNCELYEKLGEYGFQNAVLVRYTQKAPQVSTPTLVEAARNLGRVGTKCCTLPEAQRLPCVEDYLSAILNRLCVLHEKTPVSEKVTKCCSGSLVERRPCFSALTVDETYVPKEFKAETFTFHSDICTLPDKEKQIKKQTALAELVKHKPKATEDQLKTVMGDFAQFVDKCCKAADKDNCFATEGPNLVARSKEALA

In the case of `C[N+](C)(C)CCOP(=O)([O-])OCCCCCCCCCCCCCCCCCCc1ccc(I)cc1` [NM404, 18-(p-iodophenyl)-octadecyl phosphocholine], the Uptake (Retinoblastoma) is reported as “Yes”, the Uptake (TRAMP prostate) is reported as “Yes” and the “circulating radioactivity associated with the albumin fraction” value (albumin fraction) is reported as 88%. The Uptake (Mammary SCC and ACC) was “Yes”, the acute toxicity [1, 5] was “well tolerated and no acute toxicities were found” and the toxic effects ([1]; female rabbits, single dose 0.04 mg/kg, Study 32, GLP) was “No significant toxic effects”. For the same compound, the toxic effects ([1]; male rabbits, single dose 4 mg/kg, Study 28, GLP) was “No significant toxic effects”, the Uptake (Adrenal RL-251; Adenocarcinoma) was “Yes” and the tumor retention (Adrenal RL-251; human adrenal tumor xenograft, FIG. 7) was “Prolonged tumor retention”. The acute toxicity [2, 5] was “well tolerated and no acute toxicities were found”, the toxic effects ([2]; female rats, single dose 0.04 mg/kg, Study 31, GLP) was “No significant toxic effects” and the toxic effects ([2]; male rats, single dose 4 mg/kg, Study 27, GLP) was “No significant toxic effects”. For the same compound, the Uptake [3] was “Yes”, the Uptake (Cervical) was “Yes” and the Uptake (Glioma L9) was “Yes”. The Uptake (Liver CT-26) was “Yes”, the Uptake (Ovarian HTB-77) was “Yes” and the “tumor visualization by gamma camera scintigraphy” value (Prostate MatLyLu; 24 and 48 hours after injection) was “readily visualized”. For the same compound, the liver activity (Prostate MatLyLu; 125I-labeled, initial image screen, compared with NM324) was “much lower liver activity”, the Uptake (Prostate MatLyLu; Adenocarcinoma) was “Yes” and the “duration of tumor retention” value (Prostate MatLyLu; initial screen, FIG. 7) was “over 20 days”. For the same compound, the “liver and abdominal radioactivity levels” value [4] was “much lower”.

From patent publication US8022235B2, “Compositions of phospholipid ether boronic acids and esters and methods for their synthesis and use” (Cellectar, Inc., priority 2007, dated 2011)
